{"source": "patent US11369614B2", "about": "“Telodendrimers with riboflavin moieties and nanocarriers and methods of making and using same” (priority 2017, dated 2022)", "system": "SKOV3 xenograft tumor", "experiment": "In vivo and ex vivo tumor targeting by fluorescence imaging", "parameters": "species or system nude mice", "details": "i.v.", "protocol": "Raji lymphoma, MDA-MB-231, and SKOV3 xenograft tumor bearing mice model were established by subcutaneous injection of 1×10^7 cells in 100 μL of Matrigel and PBS (1:1 v/v) at the right or left flank of female nude mice aged 4-6 weeks. […] Then the DiD-DOX co-loaded Rf-containing nanoformulations were filtered with 0.22 am sterile filter. Free DiD in PBS was used as the control group. All the formulations were intravenously injected through tail vein. The mice were anaesthetized and imaged by IVIS® (In vivo Imaging System) 200 (perkinElmer) at 0.5, 1, 2, 4, 8, 24, 48, 72 h different time points with the ex/em 625/700 nm. Finally, the mice were euthanized, tumor and all the major organs were taken out for ex vivo imaging. Living Image software (Caliper Life Sciences) were used to define and measure the fluorescence intensity in the place of interest.\nMice were euthanized in the following day. […] The nuclei were stained by DAPI."}
{"smiles": "CCCCCCCCCCCCCCCCCCN1/C(=C/C=C/C=C/C2=[N+](CCCCCCCCCCCCCCCCCC)c3ccccc3C2(C)C)C(C)(C)c2ccccc21.[O-][Cl+3]([O-])([O-])[O-]", "note": "[free DiD, 1,1′-dioctadecyl-3,3,3,3′,3′-tetramethylindodicarbocyanine perchlorate]", "values": [{"measurement": "tumor accumulation (in vivo imaging)", "value": "No specific tumor accumulation"}]}
